According to article PMC7901650, “Garcinoic Acid Is a Natural and Selective Agonist of Pregnane X Receptor” (Journal of Medicinal Chemistry, 2020):

Columns and labels:
HT29 = assay: PXR and CYP3A4 protein expression in HT29 cells; format: cell-based; conditions: HT29, 24 h, 1 to 25 μM
Experimental: (§1) HepG2 (human hepatoma cell line; ATCC HB-8065, Manassas, VA) and HepaRG (HPRGC10, Thermo Fisher Scientific) cells were maintained in culture as previously described.[47] Experiments were performed between passages 2 and 10. Cell viability, clonogenic activity, and apoptotic cell death were assessed as previously described (see Figure S2).[58],[59] HT29 human colorectal adenocarcinoma cells (ATCC HTB-38) and its mucous-secreting HT29-MTX subclone (Sigma-Aldrich) were used as intestinal cell models. HT29 cells were cultured in RPMI (Invitrogen; Life Technologies) containing 10% FBS (v/v) and 1% (v/v) L-glutamine. HT29-MTX cells (from Sigma-Aldrich) were cultured in DMEM supplemented with 2 mM glutamine, 1% nonessential amino acids, and 10% FBS. […]
(§2) Cells were harvested and lysed in ice-cold cell lysis buffer (Cell Signaling Technology) and 20 μL/mL protease inhibitor cocktail (Roche). […] After incubation in ice for 1 h and centrifugation (12 000 rpm for 20 min at 4 °C), the supernatant was recovered, and total proteins were quantified by the BCA assay kit (Pierce, Thermo Fisher Scientific). […] The band intensity was analyzed using Gel Pro analyzer Software. […]
(§3) PXR and CYP3A4 protein was assessed by immunoblot (20 µg total protein loading) in HT29 cells (from ATCC) were cultured in RPMI (Invitrogen; Life Technologies) containing 10% FBS ( v/v) and 1% ( v/v) L-glutamine. […]

PPARs = assay: AlphaScreen nuclear receptor panel, PPARs; format: biochemical, human
Description: (§4) Ligand binding activity of GA (1) was explored via AlphaScreen technology over a panel of NRs that, along with hPXR (Figure 1A), included major human endocrine and metabolic receptors, such as the retinoid X receptor (RXR), constitutive androstane receptor (CAR), farnesoid X receptor (FXR), vitamin D receptor (VDR), liver X receptor (LXR) forms α and β, and the PPAR isoforms α, δ, and γ (see Figure S1). GA (1) was compared to its analogue δ-tocotrienol (5), the vitamers 3 and 4, their short-chain metabolites (SCMs) α-CEHC (10) and γ-CEHC (11), and the LCMs 2 and 8 (Chart 1). The test was performed in the presence of reference standard agonists for the different NRs.
(§5) The activity of nuclear receptors was determined using AlphaScreen technology, a recruitment coactivator assay previously described.[56]
(§6) (A) The test was carried out at 10 μM compound final concentration. Ligand binding to nuclear receptors was expressed as luminescence units. […] Vehicle was assessed to obtain a measure of background signal (basal evaluation). […] In presence of the ligand, the nuclear receptor LBD undergoes conformational changes, binds to the coactivator and the chemical energy is transferred from donor to acceptor beads in order to produce a signal, i.e. luminescence; in this case the compounds behaves as agonist, changing the conformation of the receptor to recruit the coactivator. […]

HT29-MTX = assay: PXR and CYP3A4 protein expression in HT29-MTX cells; format: cell-based; conditions: 24 h, 1 to 25 μM
Experimental: as §1, §2, §3

CAR = target: T1, CAR (Homo sapiens, UniProt Q14994); assay: AlphaScreen nuclear receptor panel, CAR; format: biochemical
T1 construct: GST-LBD
T1 sequence (Q14994 109-352 limits assumed): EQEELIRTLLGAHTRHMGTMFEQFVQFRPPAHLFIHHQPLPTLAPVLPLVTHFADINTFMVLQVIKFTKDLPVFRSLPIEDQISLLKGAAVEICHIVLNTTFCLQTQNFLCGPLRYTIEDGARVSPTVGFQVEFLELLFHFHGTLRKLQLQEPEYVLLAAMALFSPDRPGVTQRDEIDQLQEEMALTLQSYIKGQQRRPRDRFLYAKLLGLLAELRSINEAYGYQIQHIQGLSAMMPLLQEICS
Description: as §4, §5, §6

## C/C(=C\CC/C(C)=C/CC[C@]1(C)CCc2cc(O)cc(C)c2O1)CC/C=C(\C)C(=O)O [GA (1), (2E,6E,10E)-13-[(2R)-6-hydroxy-2,8-dimethyl-chroman-2-yl]-2,6,10-trimethyltrideca-2,6,10-trienoic acid]
HT29
  PXR and CYP3A4 protein expression: increase
PPARs
  Response on PPARs: No response
HT29-MTX
  PXR and CYP3A4 protein expression: increase
CAR
  Effect on CAR (constitutive activation): partially inhibited
